According to PubChem BioAssay (NCI):
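Values below derive from 48-hour exposures of cells grown in 96-well plates, with endpoints linearly interpolated between the two concentrations bracketing the appropriate inhibition level. GI50 = concentration required for 50% inhibition of growth. Definition used: TGI = concentration required for complete inhibition of growth.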

How the values were obtained:
Assay in all cases: NCI-60 cell line screen, 48 h
[1] = system: MDA-MB-435
[2] = system: SK-OV-3 ovarian
[3] = system: HCT-116 colon
[4] = system: UACC-257 melanoma
[5] = system: M14 melanoma
[6] = system: BT-549 breast
[7] = system: SK-MEL-2 melanoma
[8] = system: SK-MEL-28 melanoma
[9] = system: MOLT-4 leukemia
[10] = system: CAKI-1 renal
[11] = system: MCF7 breast
[12] = system: OVCAR-5 ovarian
[13] = system: U251 CNS
[14] = system: NCI-H226 lung
[15] = system: LOX IMVI melanoma
[16] = system: 786-0 renal
[17] = system: OVCAR-4 ovarian
[18] = system: EKVX NSCLC
[19] = system: SW-620 colon
[20] = system: HCT-15 colon
[21] = system: SNB-75 CNS
[22] = system: TK-10 renal
[23] = system: SR leukemia
[24] = system: HL-60(TB) leukemia
[25] = system: KM12 colon
[26] = system: SNB-19 CNS
[27] = system: CCRF-CEM leukemia
[28] = system: RXF 393 renal
[29] = system: MALME-3M melanoma

For CS(=O)(=O)c1nccc(-c2c(-c3ccc(F)c(OCc4ccc(F)cc4)c3)nc3sccn23)n1, which GI50 [1] is on record?
Its GI50 is 16.5 µM.

What about the TGI [1] of the same compound?
The TGI was 31 µM.

And the GI50 [2]?
Its GI50 is 93.6 µM.

What about the TGI [2] of the same compound?
Its TGI is greater than 100 µM.

What about the GI50 [3] of the same compound?
Its GI50 is 14.4 µM.

And the TGI [3]?
Its TGI is 27.5 µM.

What about the GI50 [4] of the same compound?
The GI50 was 14.5 µM.

And the TGI [4]?
Its TGI is 28.4 µM.

And the GI50 [5]?
Its GI50 is 18.5 µM.

What about the TGI [5] of the same compound?
The TGI was 36.7 µM.

What about the GI50 [6] of the same compound?
Its GI50 is 21.2 µM.

What about the TGI [6] of the same compound?
The TGI was 63.6 µM.

And the GI50 [7]?
The GI50 was 15.2 µM.

What about the TGI [7] of the same compound?
Its TGI is 29.6 µM.

And the GI50 [8]?
Its GI50 is 16.1 µM.

And the TGI [8]?
Its TGI is 29.8 µM.

What about the GI50 [9] of the same compound?
The GI50 was 18.2 µM.

What about the TGI [9] of the same compound?
The TGI was 44.4 µM.

And the GI50 [10]?
The GI50 was 14.8 µM.

What about the TGI [10] of the same compound?
Its TGI is 28 µM.

And the GI50 [11]?
The GI50 was 5.69 µM.

And the TGI [11]?
The TGI was 22.2 µM.

And the GI50 [12]?
The GI50 was 67.6 µM.

And the TGI [12]?
Its TGI is greater than 100 µM.

And the GI50 [13]?
Its GI50 is 17.8 µM.

What about the TGI [13] of the same compound?
Its TGI is 37.9 µM.

What about the GI50 [14] of the same compound?
Its GI50 is 28.3 µM.

What about the TGI [14] of the same compound?
The TGI was greater than 100 µM.

What about the GI50 [15] of the same compound?
The GI50 was 10.2 µM.

What about the TGI [15] of the same compound?
The TGI was 24.5 µM.

What about the GI50 [16] of the same compound?
The GI50 was 20.9 µM.

And the TGI [16]?
The TGI was 53.3 µM.

What about the GI50 [17] of the same compound?
The GI50 was 17.8 µM.

What about the TGI [17] of the same compound?
The TGI was 44.6 µM.

What about the GI50 [18] of the same compound?
The GI50 was 15.6 µM.

And the TGI [18]?
Its TGI is 29.1 µM.

What about the GI50 [19] of the same compound?
Its GI50 is 16.1 µM.

And the TGI [19]?
The TGI was 31.8 µM.

What about the GI50 [20] of the same compound?
Its GI50 is 13.8 µM.

And the TGI [20]?
Its TGI is 31.4 µM.

What about the GI50 [21] of the same compound?
The GI50 was 16.4 µM.

And the TGI [21]?
Its TGI is greater than 100 µM.

What about the GI50 [22] of the same compound?
The GI50 was 22.1 µM.

And the TGI [22]?
Its TGI is 66.3 µM.

What about the GI50 [23] of the same compound?
The GI50 was 13.1 µM.

What about the TGI [23] of the same compound?
Its TGI is 60.8 µM.

What about the GI50 [24] of the same compound?
Its GI50 is 3.89 µM.

And the TGI [24]?
Its TGI is 15.3 µM.

And the GI50 [25]?
Its GI50 is 17.6 µM.

And the TGI [25]?
The TGI was 33.8 µM.

What about the GI50 [26] of the same compound?
The GI50 was 16 µM.

What about the TGI [26] of the same compound?
Its TGI is 30 µM.

And the GI50 [27]?
Its GI50 is 3.38 µM.

And the TGI [27]?
The TGI was 13.1 µM.

And the GI50 [28]?
The GI50 was 14.3 µM.

And the TGI [28]?
Its TGI is 29.2 µM.

And the GI50 [29]?
The GI50 was 24.5 µM.
